This is an account of results in US20130324545A1, “METHODS FOR THE REGULATION OF THE PROSTAGLANDIN F SYNTHASE (PGFS) ACTIVITY OF AKR1B1 AND USES THEREOF” (UNIVERSITE LAVAL, priority 2007, published 2013).

Data set [1] has as its system primary human umbilical vein endothelial cells (HUVEC). Briefly: Effect of IL-1β and TNF-α on PGF2α, COX-2 and AKR1B1 in primary HUVEC. Format: cell-based. Particulars: for PGF2α production: ELISA; for COX-2 protein expression: endogenous AKR1B1 levels already high. The source says: FIG. 22 comprises FIGS. 22A and 22B, with FIG. 22A illustrating the effect of IL-1β and TNF-α on the production of PGF2α by primary human umbilical vein endothelial cells (HUVEC), as measured by ELISA; and FIG. 22B illustrating the effect of IL-1β and TNF-α on the protein expression of COX-2 and AKR1B1 in primary HUVEC.
(ELISA stands for enzyme-linked immunosorbent assay.)

The test system of data set [2] is human endometrial stromal (HIESC) cells. Description: PGF2α and PGE2 production and enzyme expression in endometrial stromal HIESC cells stimulated with IL-1β (ELISA, Western blot). In kind it is cell-based. Particulars: increasing doses of cytokine. On the procedure: (§1) Western blot analysis was performed with approximately 20 μg total proteins from cultured cells on a 10% SDS-PAGE gel, followed by electro-transfer onto nitrocellulose membrane. The primary antibodies used for the present study were rabbit AKR1B1 (dilution 1:1000) and COX-2 (dilution 1:10 000) anti-sera and goat AKR1C3 (dilution 1:500) anti-serum. A β-actin monoclonal antibody (1:5000, Sigma, Mississauga, Ontario, Canada) was used as an internal control. Goat anti-rabbit IgG conjugated with horseradish peroxidase (HRP) (Jackson Immunoresearch Laboratories, West Grove, Pa., USA), rabbit anti-goat IgG HRP and goat anti-mouse IgG HRP were used as secondary antibodies. Chemiluminescence was analyzed with autoradiography films at optimal times of exposure following treatment of the membranes with Renaissance™ reagent (NEN Life Science Products, Boston, Mass., USA).
(§2) For cell culture transfection, immortalized human endometrial stromal cells (HIESC-2) and epithelial cells(HIEEC-22) were cultured in RPMI 1640 without phenol red, containing 50 IU penicillin-streptomycin supplemented with 10% whole fetal bovine serum (FBS). Ten percent dextran-coated charcoal-extracted FBS was used once cells have reached confluency. Knock-down and knock-in transfections of cells with AKR1B1 specific siRNA, AKR1B1 or AKRIC3 cDNAs in pCR3.1 expression vectors were performed with Lipofectamine™ 2000 for 4 hours in culture medium without antibiotic. Thirty-six hours after transfection (24 hours for siRNA transfection), cells were treated for 24 hours with recombinant human interleukin 1β (IL-1β) (1 ng/ml) (R&D Systems, Minneapolis, Minn., USA) or arachidonic acid (AA) 10 μM in RPMI 1640 medium without serum. At the end of the treatment period, the culture medium was recovered and stored at −20° C. until evaluation for PGF2α production.
(§3) Enzymatic immunoassay (EIA) was performed with an acetylcholinesterase-linked PGF2α tracer (Cayman) as described previously (Asselin et al., Biol Reprod 54(2); 371-9, 1996). Sheep anti-PGF2α (Bio-Quant, Ann Arbor, Mich., USA) was used as the selective antibody. Inter-assay and intra-assay coefficients of variations (n=12) were of 16% and 10% respectively. Statistical analysis was performed using ANOVA with Statview™ software (Abacus Concept, Calif.). Values were considered statistically significant for p<0.05.

In data set [3] the test system is human primary cardiomyocytes. Description: Effect of IL-1β and TNF-α on PGF2α, COX-2 and AKR1B1 in human primary cardiomyocytes (ELISA, Western blot). Format: cell-based. Particulars: for PGF2α production: FIG. 19, ELISA; for AKR1B1 and COX-2 protein expression: FIG. 19, Western blot. The source says: FIG. 19 comprises FIG. 19A, 19B, 19C and 19D, and illustrates the effect of IL-1β and TNF-α on the production of PGF2α (A), COX-2 (B) and AKR1B1 (C) by human primary cardiomyocytes, as measured by ELISA and Western blot. FIG. 19D illustrates β-actin levels of the three cells groups.

The subject of data set [4] is human endometrial epithelial (HIEEC) cells. Description: PGF2α and PGE2 production and enzyme expression in endometrial epithelial HIEEC cells stimulated with IL-1β (ELISA, Western blot). Format: cell-based. Conditions: for PGF2α production / expression of PGF2α biosynthetic enzymes (AKR1B1, COX-1, COX-2): increasing doses of cytokine, HIEEC; for pIC50: Homo sapiens. On the procedure: as §1, §2, §3

The subject of a further data set is macrophages. Particulars: macrophages treated with endotoxines or lipopolysaccharides; cited from earlier work.
Data set [5] deals with human endometrial stromal (HIESC) cells. Briefly: PGF2α and PGE2 production and enzyme expression in endometrial stromal HIESC cells stimulated with IL-1β (ELISA, Western blot). In kind it is cell-based. Conditions: for pIC50: Homo sapiens, stromal HIESC cells stimulated by IL-1β, ELISA, range in brackets; for PGE2 production in presence of PG receptor antagonist: IL-1β-stimulated stromal HIESC.

For data set [6], the system named is primary human umbilical artery smooth muscle cells (HUASMC). Briefly: Effect of IL-1β on PGF2α, COX-2 and AKR1B1 in primary HUASMC. Format: cell-based. An excerpt: FIG. 20 comprises FIGS. 20A and 20B, with FIG. 20A illustrating the effect of IL-1β on the production of PGF2α by primary human umbilical artery smooth muscle cells (HUASMC), as measured by ELISA; and FIG. 20B illustrating the effect of IL-1β on the protein expression of COX-2 and AKR1B1 in primary HUASMC.

Data set [7] relates to primary human umbilical vein smooth muscle cells (HUVSMC). Briefly: Effect of IL-1β on PGF2α, COX-2 and AKR1B1 in primary HUVSMC. Format: cell-based. The source says:
FIG. 21 comprises FIGS. 21A and 21B, with FIG. 21A illustrating the effect of IL-1β on the production of PGF2α by primary human umbilical vein smooth muscle cells (HUVSMC), as measured by ELISA; and FIG. 21B illustrating the effect of IL-1β on the protein expression of COX-2 and AKR1B1 in primary HUVSMC.

For data set [8] the following is noted: diabetic subjects having neuropathies; cited from earlier work.
For a further data set, the target named is T1, AKR1B1 (Homo sapiens, UniProt P15121).
T1 construct: endogenous in cells; host or cells: 'our cellular model'
Description: Effect of ASA / COX inhibitors on AKR1B1 expression and PGF synthase activity in cells expressing AKR1B1. Format: cell-based. On the procedure:
as §1

[9] abbreviates: read-out: IC50 PGF2α production.
Where [10] appears, read: HIEEC cells stimulated by IL-1β, ELISA, range in brackets, read-out: IC50 PGE2 production.
The mark [11] stands for this setting: HIEEC cells treated with IL-1β, ELISA, range in brackets, read-out: IC50 PGF2α production.

The term pIC50 denotes the negative decadic logarithm of the IC50, by convention in mol/L.

pIC50: −log10 of the molar value. Like-named read-outs stand apart in the source and are kept apart here.

With TNF-α, in [1], the PGF2α production result is recorded as “stimulated” and the COX-2 protein expression result was “stimulated”. In data set [2], the PGF2α production entry is listed as “increase in PGF2α production”; the “expression of PGF2α biosynthetic enzymes (AKR1B1, COX-1, COX-2)” value (“expression of PGF2α biosynthetic enzymes” for short) was “significant increase in expression of AKR1B1, COX-1 and COX-2”. In addition, in data set [3], the PGF2α production entry is “stimulated”; the “AKR1B1 and COX-2 protein expression” value is listed as “stimulated”. Further, in [4], the PGF2α production entry was “increase in PGF2α production”; the “expression of PGF2α biosynthetic enzymes” value was “significant increase in expression of AKR1B1, COX-1 and COX-2”.

Regarding `O=C1NC(=O)[C@@]2(CCOc3ccc(F)cc32)N1` [Sorbinil™], in the data set on macrophages, the “production levels of PGE2” value is on record as “capable to reduce”.

On to `COc1ccc2cc([C@H](C)C(=O)O)ccc2c1` [naproxen], for which the pIC50 in data set [5] (read-out: IC50 PGE2 production) was 7.20; in [5] (setting [9]), 7.36; in data set [4] (setting [10]), 6.85; in data set [4] (setting [11]) it was 8.34. In addition, the “inhibition of PGF2α versus PGE2 production, comparison of IC50” value in data set [5] (endometrial stromal cells (only express COX-2)) is reported as “comparable IC50”. The “potency for inhibition of PGF2α production compared with Aspirin” value in [4] (HIEEC cells stimulated by IL-1β) was “more potent than Aspirin™”. Further, the PGF2α/PGE2 ratio entry in [4] (at 10 nM) is given as “strong alteration of the PGF2α/PGE2 ratio in favor of PGE2”. Also, the “inhibits PGF2α more efficiently than PGE2” value in data set [4] (endometrial epithelial cells (express COX-1 and COX-2)) is on record as 100 times.

IL-1β: recombinant human interleukin 1β: the “AKR1B1 and COX-2 protein expression” value in data set [6], in data set [7] and in data set [3] was “stimulated” throughout. The PGF2α production entry is on record as “stimulated” in data set [6] (ELISA); “stimulated” in data set [7] (ELISA); “stimulated” in data set [1]; “increase in PGF2α production” in [2]; “stimulated” in [3]; “increase in PGF2α production” in [4]. Besides, the COX-2 protein expression entry in data set [1] is “stimulated”. For the same compound, the “expression of PGF2α biosynthetic enzymes” value in data set [2] was “only of COX-2”; in [4] it was “significant increase in expression of AKR1B1, COX-1 and COX-2”. For the same compound, the “AKR1C3 protein expression level” value in data set [4] (HIEEC-22, 1 ng/ml, Western blot) is reported as “no effect”.

`O=C(O)Cc1nn(Cc2ccc(Br)cc2F)c(=O)c2ccccc12` [Statil™]: the side-effects entry in data set [8] is “undesirable hepatic side-effects”.

With `CC(=O)Oc1ccccc1C(=O)O` [Aspirin, acetylsalicylic acid], the AKR1B1 gene expression entry on AKR1B1 is “blocks”. Further, the “inhibition of AKR1B1 protein” value against AKR1B1 (1-5 mM, cellular model) is listed as “dose-dependent inhibition”. Also, on AKR1B1 (cells expressing AKR1B1), the PGF synthase activity result is “strongly reduced” and the “protein expression level of AKR1B1” value was “strongly reduced”. For the same compound, the pIC50 in data set [4] (setting [9]) is 5.71.

As for `O=C(O)CCC/C=C\C[C@@H]1[C@@H](/C=C/[C@H](O)C2Cc3ccccc3C2)[C@@H](F)C[C@@H]1O` [AL8810], the figures for the “PGE2 production in presence of PG receptor antagonist” value in [5], in data set [5] (listed as AL 8810) and in data set [4] (IL-1β-stimulated epithelial HIEEC) were “induced a reduction in PGE2 production”, “reduced PGE2 production” and “induced a reduction in PGE2 production”, respectively.

`CS(=O)(=O)c1ccc(C2=C(c3ccccc3)C(=O)OC2)cc1` [rofecoxib]: the AKR1B1 gene expression entry at AKR1B1 was “do not influence”. In addition, the “inhibits production of PGE2 more efficiently than production of PGF2α” value in data set [4] (HIEEC cells stimulated with IL-1β) is “ten times more efficiently”. Besides, the pIC50 in [4] (setting [10]) is 7.29; in data set [4] (setting [11]), 6.70. In addition, the PGF2α/PGE2 ratio result in data set [4] (at 10 μM) is on record as “strong alteration of the PGF2α/PGE2 ratio in favor of PGF2α”.

With `CS(=O)(=O)Nc1ccc([N+](=O)[O-])cc1OC1CCCCC1` [NS-398], the “inhibition of PGF2α production” value in data set [4] (COX-1-expressing HIEEC, IL-1β) was “did not completely inhibited”.

With `O=C(O)Cc1nn(Cc2nc3cc(C(F)(F)F)ccc3s2)c(=O)c2ccccc12` [Zopolrestat™], the side-effects entry in [8] is recorded as “undesirable hepatic side-effects”. Moreover, in the data set on macrophages, the “production levels of PGE2” value is “capable to reduce”.

Regarding `COc1ccc2c(C(=S)N(C)CC(=O)O)cccc2c1C(F)(F)F` [Tolrestat™], the side-effects entry in data set [8] was “undesirable hepatic side-effects”. Besides, the “production levels of PGE2” value with macrophages is “capable to reduce”.
